Data set [1] has as its system cortical neurons. Description: Dendritogenesis assay, Sholl analysis. It counts as cell-based, rat. Conditions: for Emax at 10 µM: Rattus norvegicus, Cortical neurone, Nmax with vehicle (DMSO) = 0% and ketamine = 100%, read-out: % efficacy in sholls; for dendritic arbor complexity / neuronal growth (Nmax of Sholl plots): cortical neurons; for Emax at 10 µM / dendritic arbor complexity / neuronal growth (Nmax of Sholl plots): 10 μM. From the text: Dendritogenesis Assays. Phenotypic screening has historically proven more successful than target-based approaches for identifying drugs with novel mechanisms of action. Having established a simple and robust method for accessing isoDMT analogs, tested next was their ability to increase dendritic arbor complexity in cultures of cortical neurons using a phenotypic assay. Following treatment, neurons were fixed and visualized using an antibody against MAP2—a cytoskeletal protein localized to the somatodendritic compartment of neurons. Sholl analysis was then performed, and the maximum number of crossings (Nmax) was used as a quantitative metric of dendritic arbor complexity. For statistical comparisons between specific compounds, the raw Nmax values were compared. Percent efficacies were determined by setting the Nmax values for the vehicle (DMSO) and positive (ketamine) controls equal to 0% and 100%, respectively.
(§1) Animals. For the dendritogenesis experiments, timed pregnant Sprague Dawley rats were obtained from Charles River Laboratories (Wilmington, Mass.). For the head-twitch response assay, male and female C57BL/6J mice were obtained from Jackson Laboratory (Sacramento, Calif.). Mice were housed in a temperature and humidity-controlled room maintained on a 12-h light/dark cycle in groups of 4-5 (same sex). Animals weighed between 17 and 30 g at the time of the experiments. All experimental procedures involving rodents were approved by the UC Davis Institutional Animal Care and Use Committee (IACUC) and adhered to principles described in the National Institutes of Health Guide for the Care and Use of Laboratory Animals. The University of California, Davis and the University of California, San Francisco are accredited by the Association for Assessment and Accreditation of Laboratory Animal Care International (AAALAC).
Dendritogenesis—Sholl Analysis. Dendritogenesis experiments were performed following a previously published method with slight modifications. Neurons were plated in 96-well format (200 μL of media per well) at a density of approximately 15,000 cells/well in Neurobasal (Life Technologies) containing 1% penicillin-streptomycin, 10% heat-inactivated fetal bovine serum, and 0.5 mM glutamine. After 24 h, the medium was replaced with Neurobasal containing 1× B27 supplement (Life Technologies), 1% penicillin-streptomycin, 0.5 mM glutamine, and 12.5 μM glutamate. After 3 days in vitro (DIV3), the cells were treated with compounds. All compounds tested in the dendritogenesis assays were treated at 10 μM unless noted otherwise. Stock solutions of the compounds in DMSO were first diluted 100-fold in Neurobasal before an additional 10-fold dilution into each well (total dilution=1:1000; 0.1% DMSO concentration). Treatments were randomized. After 1 h, the media was removed and replaced with new Neurobasal media containing 1× B27 supplement, 1% penicillin-streptomycin, 0.5 mM glutamine, and 12.5 μM glutamate. The cells were allowed to grow for an additional 71 h. At that time, neurons were fixed by removing 80% of the media and replacing it with a volume of 4% aqueous paraformaldehyde (Alfa Aesar) equal to 50% of the working volume of the well. Then, the cells were incubated at room temperature for 20 min before the fixative was aspirated and each well washed twice with DPBS. Cells were permeabilized using 0.2% Triton X-100 (ThermoFisher) in DPBS for 20 minutes at room temperature without shaking. Plates were blocked with antibody diluting buffer (ADB) containing 2% bovine serum albumin (BSA) in DPBS for 1 h at room temperature. Then, plates were incubated overnight at 4° C. with gentle shaking in ADB containing a chicken anti-MAP2 antibody (1:10,000; EnCor, CPCA-MAP2). The next day, plates were washed three times with DPBS and once with 2% ADB in DPBS. […]

In data set [2] the test system is rats. Conditions: rats trained to discriminate DOM from saline; cited from earlier work.
Data set [3] relates to 5HT2A sensor. Nature of the data set: 5HT2A sensor assay, agonist mode (sLight1.3s HEK293T stable line). It counts as cell-based. The settings on record: for activation of 5HT2A sensor assay in agonist mode at 10 μM: 10 μM of compound (FIG. 11); for activation of 5HT2A sensor assay in agonist mode (dose response): dose response (FIG. 10). In a few lines: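 Agonist mode in HEK293T cells stably expressing the sLight1.3 5HT2A sensor, washed into HBSS; compounds at final 100 μM, 10 μM and 100 nM (0.1% DMSO), triplicate wells. Membrane fluorescence (ex 460, em 512-542 nm) imaged before and after addition; dFF=(Fsat−Fapo)/Fapo, expressed as percent activation (DMSO=0, 5HT=100).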

The test system of data set [4] is C57BL/6J mice. Nature of the data set: Head twitch response (HTR) assay. It counts as in vivo, mouse. The settings on record: intraperitoneal injection, head-twitches over 20 mins (FIG. 8, FIG. 9).
Text: as §1
Head twitch response experiments. Mice (9-10 weeks old) were injected intraperitoneally with compound (injection volume 5 ml/kg), placed in an empty cage, and filmed for 20 minutes. Cages were cleaned with 70% ethanol between experiments.

For data set [5], the system named is cortical neurons. Description: Ketanserin blocking experiments (dendritogenesis). It counts as cell-based, rat. Conditions: ketanserin 10 μM, drug 1 μM (FIG. 7). Here is the method: Ketanserin Blocking Experiments. For the ketaserin blocking experiments (FIG. 7), a slightly modified method was employed. On DIV 3, neurons were first treated with ketanserin (10 μM) for 1 h followed by a 1 h incubation with drug (1 μM) and ketanserin (10 μM) (final concentration of DMSO=0.2%). After 1 h, the media was removed and replaced with new Neurobasal media containing 1× B27 supplement, 1% penicillin-streptomycin, 0.5 mM glutamine, and 12.5 μM glutamate. The cells were allowed to grow for an additional 71 h before being fixed, stained, and imaged.

Data set [6] has as its system 5HT2A sensor. Nature of the data set: 5HT2A sensor assay, antagonist mode (sLight1.3s HEK293T stable line). It counts as cell-based. The settings on record: dose response (FIG. 12A, FIG. 12B). In a few lines: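 Inactivation score is computed from membrane dFF as (dFF(compound+5HT)−dFF(5HT))/dFF(5HT), with HBSS-only fluorescence as Fapo. Final concentrations: 5-HT 100 nM added first, then compound at 100 nM, 10 μM or 100 μM in 0.1% DMSO. Triplicates; FITC imaging, 5 fields per well.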

Data set [7] relates to C57/BL6J mice. Description: Forced swim test (FST). The settings on record: 24 h after drug administration; i.p., compounds 20 mg/kg, ketamine 3 mg/kg. It counts as in vivo, mouse. Here is the method: Forced Swim Test. As increased cortical structural plasticity in the anterior parts of the brain mediates the sustained (>24 h) antidepressant-like effects of ketamine and play a role in the therapeutic effects of 5-HT2A agonists, the impact of IsoDMT analogs on forced swim test (FST) behavior (FIG. 14A and FIG. 14B) was evaluated. First, a pretest was used to induce a depressive phenotype. Compounds were administered 24 h after the pre-test, and the FST was performed 24 h and 7 d post drug administration.
Forced Swim Test (FST). Male C57/BL6J mice (9-10 weeks old at time of experiment) were obtained from the Jackson Lab and housed 4-5 mice/cage in a UCD vivarium following an IACUC approved protocol. After 1 week in the vivarium each mouse was handled for approximately 1 minute by a experimenter for 3 consecutive days leading up to the first FST. […] Immobility scores for all mice were determined after the pre-test and mice were randomly assigned to treatment groups to generate groups with similar average immobility scores to be used for the following two FST sessions. […] Experiments were video-recorded and manually scored offline. Immobility time—defined as passive floating or remaining motionless with no activity other than that needed to keep the mouse's head above water—was scored for the last 4 min of the 6 min trial.

Entries after “also recorded” stand apart in the source; their conditions may differ.

By melting point is commonly meant the temperature of the solid-liquid transition.

The compound `CN(C)CCn1ccc2ccccc21.O=C(O)/C=C/C(=O)O` [Example 2, 2-(1H-indol-1-yl)-N,N-dimethylethan-1-amine] showed a melting point of 147 to 149 °C. Moreover, in data set [1], the Emax at 10 µM came to 87% and the “dendritic arbor complexity / neuronal growth (Nmax of Sholl plots)” value is “increase dendritic arbor complexity to a comparable extent as DMT (1); also recorded: increased dendritic arbor complexity to a comparable extent as 1”. Also, the “psychoplastogenic efficacy and potency, concentration-response (Nmax)” value in data set [1] (concentrations ranging from 10 μM to 10 pM (FIG. 6)) is “comparable maximum efficacies and had similar potencies as isosteric DMTs (1 and 28)”.

In the case of `CN(C)CCn1ccc2ccc(F)cc21.O=C(O)/C=C/C(=O)O` [Example 14, 2-(6-fluoro-1H-indol-1-yl)-N,N-dimethylethan-1-amine], the melting point lay in the range of 141 to 147 °C. Besides, in data set [1], the Emax at 10 µM is 88%.

Compound `Cc1cc2ccccc2n1CCN(C)C.O=C(O)/C=C/C(=O)O` [Example 16, N,N-dimethyl-2-(2-methyl-1H-indol-1-yl)ethan-1-amine] yielded a melting point of 131 to 133 °C. Also, in data set [1], the Emax at 10 µM came out at 104% and the “dendritic arbor complexity / neuronal growth (Nmax of Sholl plots)” value was “well tolerated”.

Compound `CN(C)CCn1ccc2ccc([N+](=O)[O-])cc21.O=C(O)/C=C/C(=O)O` [Example 19, N,N-dimethyl-2-(6-nitro-1H-indol-1-yl)ethan-1-amine] had a melting point of 159 to 164 °C. The Emax at 10 µM in data set [1] was found to be 85%.

Take `CN(C)CCn1ccc2cc(Br)ccc21.O=C(O)/C=C/C(=O)O` [Example 20, 2-(5-bromo-1H-indol-1-yl)-N,N-dimethylethan-1-amine]: the melting point was in the range of 140 to 142 °C. In addition, the Emax at 10 µM in data set [1] was 117%.

The compound `CN(C)CCn1cnc2ccccc21.O=C(O)/C=C/C(=O)O` [Example 22, 2-(1H-benzo[d]imidazol-1-yl)-N,N-dimethylethan-1-amine] showed a melting point of 171 to 178 °C. In data set [1], the Emax at 10 µM amounted to 50% and the “dendritic arbor complexity / neuronal growth (Nmax of Sholl plots)” value is “minimal effect on the ability of these molecules to promote neuronal growth”.

Turning to `CN(C)CCn1c2ccccc2c2ccccc21.O=C(O)/C=C/C(=O)O` [Example 24, 2-(9H-carbazol-9-yl)-N,N-dimethylethan-1-amine], the melting point was in the range of 182 to 184 °C. In data set [1], the Emax at 10 µM was found to be 86% and the “dendritic arbor complexity / neuronal growth (Nmax of Sholl plots)” value was “minimal effect on the ability of these molecules to promote neuronal growth”.

Regarding `CN(C)CCCn1ccc2ccccc21.O=C(O)/C=C/C(=O)O` [Example 26, 3-(1H-indol-1-yl)-N,N-dimethylpropan-1-amine], the melting point was 129 to 131 °C. Also, in data set [1], the Emax at 10 µM amounted to 70% and the “dendritic arbor complexity / neuronal growth (Nmax of Sholl plots)” value is given as “only a slight decrease in the Nmax value”.

`COc1ccc2[nH]cc(CCN(C)C)c2c1` [Example 28, 2-(5-methoxy-1H-indol-3-yl)-N,N-dimethylethan-1-amine, reference compound]: the Emax at 10 µM in data set [1] is 80%. Besides, the “substitution for hallucinogenic training drug (DOM) in drug discrimination” value in data set [2] is given as “substitutes”. Further, in data set [3], the “activation of 5HT2A sensor assay in agonist mode at 10 μM” value is “activate the 5HT2A sensor assay in agonist mode” and the “activation of 5HT2A sensor assay in agonist mode (dose response)” value is recorded as “activate”. Besides, in data set [4], the “head-twitch response (hallucinogenic potential)” value is “robust, dose-dependent HTR”. For the same compound, the “effect of 5-HT2A antagonist pretreatment on increase in dendritic growth” value in data set [5] is on record as “blocked”.

Regarding `COc1ccc2c(CCN(C)C)c[nH]c2c1` [Example 30, 2-(6-methoxy-1H-indol-3-yl)-N,N-dimethylethan-1-amine, reference compound], the Emax at 10 µM in data set [1] stood at 72%. The “competition with 5-HT in 5HT2A sensor assay, antagonist mode (dose response)” value in data set [6] is reported as “compete off 5-HT”. The “substitution for hallucinogenic training drug (DOM) in drug discrimination” value in data set [2] is “does not”. Further, in data set [3], the “activation of 5HT2A sensor assay in agonist mode at 10 μM” value was “do not activate the 5HT2A sensor assay in agonist mode” and the “activation of 5HT2A sensor assay in agonist mode (dose response)” value is given as “do not”. In addition, in data set [4], the “head-twitch response (hallucinogenic potential)” value is “did not produce a HTR”.

Regarding `CN(C)C(=O)Cn1ccc2ccccc21` [Example 31, 2-(1H-indol-1-yl)-N,N-dimethylacetamide], the melting point lay within 58 to 61 °C. The “dendritic arbor complexity / neuronal growth (Nmax of Sholl plots)” value in data set [1] is “did not promote neuronal growth”.

`CNC1(c2ccccc2Cl)CCCCC1=O` (stereo not shown) [ketamine, reference compound]: the “immobility in forced swim test” value in data set [7] is on record as “significantly reduced immobility”.

Source of the values: US11254640B2, “N-substituted indoles and other heterocycles for treating brain disorders” (The Regents of the University of California, priority 2019, dated 2022).
